Structure (SMILES)	melting point
NS(=O)(=O)Cc1cccc2c1C(=O)OC2	192 to 195 °C
CCNCN1CN=C(c2ccc(OC)c(OC)c2)c2cc(OC)c(OC)cc21	128 to 130 °C
CSc1nc(C)cc(OC(F)F)n1	40 to 42 °C
O=[N+]([O-])c1ccc(NN=C(c2ccccc2)c2ccccc2)c([N+](=O)[O-])c1	232 to 234 °C
CC(NC(=O)c1sc2ccc(C(F)(F)F)cc2c1O)C(O)(c1ccccc1)c1ccccc1 (stereo not given)	129 to 130 °C
CC(C)CNS(=O)(=O)c1ccc(N)c(C(=O)N2CCN(C)CC2)c1	162 to 163 °C
Cc1nc(-c2cccc(C(=O)N[C@H]3CC[C@H](CCN4CCN(c5nccc6c5OCC6)CC4)CC3)c2)no1	228 °C
CNC(=O)N(O)Cc1cc2ccccc2s1	160 to 161 °C
C#CCCOc1cc(C=O)ccc1OC	63 to 65 °C
COc1ccc2cc(-c3ccc(OCC(O)CNC(C)C)c(OC)c3)n(C)c(=O)c2c1 (stereo not given)	144 to 146 °C
COc1ccc(Oc2ccc3ccc(N)nc3n2)cc1	200 °C
CN(c1ccc(Cl)cc1)c1ncnc2cc(Cl)ccc12	129 to 131 °C
CCCN(CCC)c1nc2c(N3CCCCCC3)nc(N3CCOCC3)cc2c(=O)[nH]1	250 °C
CC(C)c1cc(C#N)cc(C(=O)Nc2ccc(F)cn2)n1	194 °C
O=C(NCCCCn1cncn1)c1ccco1	78 to 79 °C
CCOC(=O)c1cn(C2CC2)c2cc(F)c(F)c(N)c2c1=O	240 to 241 °C
COc1ccc2c(c1)c(O)c(C#N)n2-c1ccccc1	182 °C
NC1=C(C(=O)c2ccc(Br)s2)C2=C(CCCC2)S1=O (stereo not given)	160 to 163 °C
CCCN1C(=O)CC(C)(C)c2cc(C)c(-c3cc(C=O)ccc3OC(F)(F)F)cc21	219 to 223 °C
Cc1nc(N)nc(N)c1N=Nc1ccc(Br)cc1	245 to 246 °C
Cc1ccc(-c2c(F)c(F)c3c(=O)c(C(=O)O)cn(C4CC4)c3c2F)c(C)n1	264 to 266 °C
C=CCOc1ccc(C(=O)Oc2ccc3ccc(OC(=O)C(=C)C)cc3c2)cc1	85 °C
O=C(O)c1cn(-c2ccc(F)cc2F)c2cc(Cl)c(F)c(Cl)c2c1=O	244 to 246 °C
Cc1cccc(C2SC3(CCN(C(=O)Oc4ccccc4)CC3)c3ccccc32)c1 (stereo not given)	154 to 157 °C
Cc1cccc(-c2nc(N)sc2-c2ccc(F)c(-c3cnn(C)c3)c2)n1	153 to 155 °C

Structure (SMILES)	melting point
Cc1nnc(C(C)(C)C)c(=O)n1N	155 to 157 °C
CON=Cc1nc(C)n2c1CN=C(c1ccccc1)c1cc(Cl)ccc1-2	193 to 195 °C
COc1ccc2c(c1OC)C(=O)O[C@@H]2[C@H]1c2c(c(I)c3c(c2OC)OCO3)CCN1C	172 to 173 °C
CCn1c(=O)c2[nH]c(/C=C/c3ccc(C(F)(F)F)cc3)nc2n(CC)c1=O	> 280 °C
COc1cc2nccn2c(OC)n1	120 to 121 °C
CCC(=O)c1c(O)cccc1O	135 to 136 °C
CCOC(=O)c1ncn2c3cccc(Br)c3c(=O)n(C)c12	272 °C
Cn1c(Cl)cc(=O)n(C2CCCCC2)c1=O	132 to 133 °C
COc1ccc(CN2C(=O)C(C)(c3cc(COCCN4CCOCC4)ccc3Cl)c3cc(Cl)ccc32)c(OC)c1 (stereo not given)	81 °C
CCCCc1c(-c2ccncc2)[nH]c(-c2ccncc2)c1C(C)=O	93 to 95 °C
O=C(O)COc1cc2onc(-c3ccccc3F)c2cc1Cl	214 to 215 °C
CCOC(=O)CC[C@H](NC(=O)c1ccc(C(=Cc2cnc3nc(NC(=O)C(C)(C)C)nc(O)c3c2)COC2CCCCO2)cc1)C(=O)OCC (stereo not given in full)	273 to 275 °C
C/C(=C/CO)c1cc2c(cc1O)C(C)(C)CCC2(C)C	144 to 145 °C
NC(=O)CC1Nc2cccc3cccc(c23)S1(=O)=O (stereo not given)	195 to 196 °C
CC(=O)C1=C(O)C(C(=O)C=Cc2ccc(C)cc2)C(=O)OC1=O (stereo not given)	188 to 190 °C
Cc1sc2ncc(C(O)CC(O)c3ccccc3)n2c1C (stereo not given)	152 to 153 °C
COc1cc(C2CCN(CC(O)CF)CC2)ccc1Nc1ncc2ccc(-c3ccccc3OC)n2n1 (stereo not given)	73 to 79 °C
CCOCc1nc2c(N)nc3cccnc3c2n1CCCCN(OC)C(=O)NC(C)C	146 to 147 °C
CC(=O)CC1=C(C#N)C(c2cccc(C#N)c2Br)c2c[nH]nc2N1 (stereo not given)	230 °C
CN1CCOc2cc(S(=O)(=O)n3c(COC(C)(C)C(=O)O)cc4nc(Cl)ccc43)ccc21	229 °C
COc1ccc2c(c1)C(=O)C(=Cc1cccnc1)CO2	127 to 131 °C
O=c1ncc(Cl)cn1CC=CCl	102 to 104 °C
C(=Cc1ccc(-c2nnn[nH]2)cc1)c1ccc(OCc2ccc3ccccc3n2)cc1	241 to 243 °C
COc1cc(C2=NN(c3ccccc3)C(=O)C2)cc([N+](=O)[O-])c1OC	190 to 192 °C
CCCCOCCOc1ccc(-c2cnc(N3CCCC3)c(/C=C(\C)C(=O)O)c2)cc1	106 to 107 °C

Structure (SMILES)	melting point
CSc1ccc(C=C2C=CC=C2)cc1	105 to 106 °C
O=S(=O)(Nc1ccc(Oc2cccc3cccnc23)c(Cl)c1)c1ccc(Cl)cc1	198 °C
COc1ccc(C=Cc2cc(OC)cc(OC)c2)cc1	55 to 56 °C
C=CCS(=O)(=O)c1ccc(NC(C)=O)cc1	116 to 118 °C
Cc1ccc(S(=O)(=O)OCC2CCN(C(c3ccccc3)(c3ccccc3)c3ccccc3)CC2)cc1	192 °C
Nc1nc(N)c2nc(CNc3ccc(Cl)cc3)cnc2n1	> 360 °C
NC(=N[N+](=O)[O-])N1CCN(Cc2ccc(Cl)nc2)C1	170 to 174 °C
CC(C)C(Cl)C(=O)Nc1c(C(=O)CC(=O)Nc2nccs2)cccc1C(F)(F)F (stereo not given)	186 °C
N#CC(Cl)=C(Cl)SC(Cl)=C(Cl)C#N	87 °C
O=C(NC(=O)c1c(F)cccc1F)Nc1cc(Cl)c(OC(F)(F)C(F)Cl)cc1Cl (stereo not given)	177 to 179 °C
C1=CC(Nc2ccccc2)C(=Nc2ccccc2)N1 (stereo not given)	137 to 139 °C
CC(=O)NCc1cccc(C#N)c1	94 to 96 °C
CS(=O)(=O)c1ccc(/C(=C2\N=C(c3ccccc3)OC2=O)c2ccc(Cl)cc2)cc1	226 °C
O=c1[nH]c2ccccc2cc1-c1csc(N(Cc2ccccc2)S(=O)(=O)c2ccccc2)n1	228 to 232 °C
O=C1N(Cc2ccccn2)c2ccccc2C12COc1c2ccc2c1OCCO2 (stereo not given)	205 to 206 °C
CCOC(=O)c1ccc2[nH]c3c(c2c1)CC(N(C)C)CC3 (stereo not given)	188 to 190 °C
Cc1cc(NS(=O)(=O)c2ccccc2)cc(C)c1S(=O)(=O)C(Cl)(Cl)[N+](=O)[O-]	112 to 114 °C
CC(CCCO)C1CC=C2C3=C(CCC21C)C1(C)CCC(O)C(C)(C)C1CC3 (stereo not given)	203 to 208 °C
Cc1cc(C)cc(CN(C)C2CCCn3c2c(-c2ccccc2)c2cc(C)c(C)cc2c3=O)c1 (stereo not given)	144 to 145 °C
CN1CC=C(c2cccc3[nH]ccc23)CC1	164 °C
CS(=O)(=O)Nc1cc([C@@H](O)CNC2CCN(c3ccc(S(=O)(=O)N(CC(=O)O)CC(=O)O)cc3)CC2)ccc1O	163 to 166 °C
CC1(C)CCC(C)(C)c2c1ccc(C=Nc1ccc(C(=O)O)c(O)c1)c2N	209 to 210 °C
CC#CCOc1ccc(S(=O)(=O)NC(Cc2c[nH]c3ccc(C)cc23)C(=O)O)cc1 (stereo not given)	45 to 46 °C
Cc1n[nH]cc1-c1cccc2c1nnn2-c1ccnc(NC2CCC(C(=O)N3CCC(O)CC3)CC2)n1 (stereo not given)	190 to 195 °C
CCOC(=O)C1=Cc2cccc(N3CCCC3=O)c2OCC1	64 to 66 °C

Structure (SMILES)	melting point
CCCC1=C(C#N)C(c2ccccc2Cl)c2c(n[nH]c2C2CCCCC2)N1 (stereo not given)	> 270 °C
Cc1nc2c3c(ccn2c1C)C(=O)C(O)C(c1ccccc1)N3 (stereo not given)	232 to 234 °C
CS(=O)(=O)c1ccc(C(=O)N2CCNC2=Nc2c(Cl)cccc2Cl)cc1	240 to 244 °C
CN(C(=O)OC(C)(C)C)c1cc(OCc2ccccc2)ccc1[N+](=O)[O-]	108 to 110 °C
O=c1c2ccccc2nc(-c2ccccc2Cl)n1O	211 °C
C=Cn1ccnc1C(O)(c1ccc(C(C)(C)C)cc1)c1ccc(C(C)(C)C)cc1	169 to 170 °C
COC(=O)c1cc2c(cc1[N+](=O)[O-])OCCO2	115 to 118 °C
OCCC1Cc2ccccc2C1O (stereo not given)	80 to 82 °C
CCCCCCC(C)NC1=NS(=O)(=O)c2sc(Cl)cc2N1 (stereo not given)	179 to 181 °C
CC1(C)[C@@H]2CC[C@@]1(C)C[C@H]2OC(=O)C1CCC(C(=O)O[C@@H]2C[C@]3(C)CC[C@H]2C3(C)C)CC1 (stereo not given in full)	77 °C
COC(CNC(=O)C(CS)CC(C)C)OC (stereo not given)	34 to 37 °C
Cc1ccnc2[nH]c(=O)c(CC(=O)O)cc12	> 250 °C
COc1cc(N)c(Cl)cc1C(=O)NCC1CCN(CCCCCNC(=O)c2nn(C)c3ccccc23)CC1	74 to 77 °C
Cc1ccc(S(=O)(=O)OCC2CN(C)c3ccc(Cl)cc3O2)cc1 (stereo not given)	65 to 67 °C
CCCCSc1cc(C(=O)O)cc(N=Nc2cc(C(=O)O)cc(SCCCC)c2C(=O)c2ccccc2)c1C(=O)c1ccccc1	102 to 103 °C
O=C(O)C1CSC(c2ccccc2OCC2CCC(CO[N+](=O)[O-])CC2)N1 (stereo not given)	108 to 111 °C
O=S1(=O)c2cccc3cccc(c23)N1CCN1CCC(Cc2c[nH]c3ccc(F)cc23)CC1	161 °C
Cc1cc(C)n(C(=O)CNS(=O)(=O)c2ccc(CC(C)C)cc2)n1	124 °C
O=c1[nH]c(=O)n(C2CC(OCc3ccccc3)C(CO)O2)cc1C(F)(F)F (stereo not given)	157 to 158 °C
C[C@H](CSc1nc2ccccc2[nH]1)Nc1nc(Cl)nc2c1ncn2[C@@H]1O[C@H](CO)[C@@H](O)[C@H]1O	213 to 215 °C
O=S(c1ccccc1)c1ncc(Cl)cc1F (stereo not given)	77 to 78 °C
CCC(CC)n1nc(C)c2c(Cl)nc(C)nc21	33 to 34 °C
CCO[C@H]1Cc2ccccc2[C@H]1Nc1nc(CC)c(-c2ccc(OC)cc2OC)nc1CC	120 to 121 °C
CCCC(=O)c1cnc2c(C)cccc2c1Nc1ccccc1CC	117 to 119 °C
CC(C)(C)C1CCc2nc(N)nc(N)c2C1 (stereo not given)	> 250 °C

Source: a melting point compilation (Tetko et al.; mined from patent text by program, amines drawn as free bases though some values may be those of a salt)
